“Also recorded” adds a separate entry of the source. Read-outs that look alike come from different tables or passages of the source. Non-standard residues stand in square brackets, D forms with d. Residues, ends and D or L forms follow the SMILES beside them. *: point of attachment. DOTA = O=C(O)CN1CCN(CC(=O)O)CCN(CC(=O)*)CCN(CC(=O)O)CC1; pY = N[C@@H](Cc1ccc(OP(=O)(O)O)cc1)C(=O)O; Nle = CCCC[C@H](N)C(=O)O
How the values were obtained:
[1] = cited from earlier work
From the text: Another approach to reduce uptake of radioactivity by the kidneys is coinjection of radiopeptides with basic amino acids. […] This method was first applied for ^111In-labeled DTPA-octreotide ([31], [32]) and ^90Y-labeled DOTA-[Tyr^3]-octreotide ([32], [33]).

MC1R = settings: cited from earlier work
[2] = cited from earlier work; remark: listed apart in the source
[3] = Biodistribution of ^111In-labeled peptides in B16-F1 melanoma-bearing mice; assay type: in vivo, mouse (B6D2F1); settings: female, iv, total radioactivity; for tissue to tissue ratio at 24 h / tissue to tissue ratio at 48 h: B6D2F1 (C57BL/6 × DBA/2F1 hybrids), mouse; for tissue to tissue ratio at 24 h / tissue to tissue ratio at 48 h / tissue to tissue ratio at 4 h: 185 kBq, mean tumor uptake divided by mean kidney uptake; for tissue to tissue ratio at 24 h: 24 h postinjection; for tissue to tissue ratio at 48 h: 48 h postinjection; for tissue to tissue ratio at 4 h / tissue uptake at 4 h: B6D2F1, mouse; for tissue to tissue ratio at 4 h: 4 h postinjection; for tissue uptake at 4 h: ^111In-labeled peptide, 185 kBq i.v., mean ± SEM of three experiments, n = 5 animals each
Procedure: (§1) About 5 × 10^5 B16-F1 cells were implanted subcutaneously to female B6D2F1 mice (C57BL/6 × DBA/2F1 hybrids; breeding pairs obtained from IFFA-CREDO, France). Seven days later, 185 kBq of ^111In-labeled ligand in 200 µL PBS/0.1% BSA were injected intravenously into the lateral tail vein of each mouse. Control mice were injected with a mixture of the tracer and 50 µg α-MSH to determine the non-specific uptake of radioligand. The animals were sacrificed 4, 24, and 48 h postinjection, dissected, and the tissues of interest collected, rinsed of excess blood, and weighed. The radioactivity emitted by each organ was measured in a γ-counter to determine the tissue uptake as percentage of the injected dose (ID) per gram of tissue. The total of injected radioactivity per animal was determined by extrapolation from the counts of a standard collected from the injection solution for each animal. Urine samples were collected at 10, 15, and 20 min and 4 h after injection and kept frozen at −80°C until use. Urine (1 vol) was mixed with methanol (2 vol) to precipitate proteins, and the supernatant was analyzed by RP-HPLC/γ-detection, as described in Ref. ([12]).
(§2) Results are expressed as means ± SEM, unless otherwise stated. The statistical evaluation of data was performed using the one- or two-way ANOVA test. When significant overall effects were obtained by ANOVA, multiple comparisons were made with the Bonferroni correction. P < 0.05 was considered statistically significant. The area under the curve (AUC) was calculated with the GraphPad Prism 6 software for the indicated period of time, using the mean tissue uptake value at each time point.

B16-F1 cells = assay: Internalization by cultured B16-F1 cells; assay type: cell-based, mouse
Procedure: B16-F1 cells were seeded in six-well plates and incubated overnight in MEM at 37°C. For the internalization experiments, MEM was replaced by 1 mL MBM (see above) as internalization buffer. After a 1-h incubation at 37°C, 74 kBq of radioligand (^111In-labeled peptides) was added, and the plates were incubated for different time periods. Non-specific internalization was determined by addition of 50 µL of a 1 µM α-MSH solution to the incubation mixture. After the desired incubation times, the cells were extensively washed with MBM kept at 37°C to remove excess radioligand. Incubation in 2 mL ice-cold acid buffer (acetate-buffered Hank’s balanced salt solution, pH 5) for 10 min allowed dissociation of surface-bound ligand. After collection of the acid buffer fraction, the cells were rinsed once with cold MBM, and the washings were pooled with the acid buffer fraction. The cells were washed again with MBM kept at 37°C, lysed in a 1% Triton X-100 solution, and finally transferred to tubes for quantification. The radioactivity of all collected fractions was measured in a γ-counter. A counting plate underwent the same treatment as the plate incubated for the longest time, but its cells were detached with 0.02% EDTA in PBS instead of being lysed with the Triton X-100 solution. Cells from three wells were collected, counted, and thus allowed for normalization of the results obtained. Results were expressed as percent of the added dose per million cells.
Figure 3 Determination of internalization of [^111In] DOTA-NAP-D-Asp-D-Asp (A) and [^111In]DOTA-Phospho-MSH2-9 (B) by cultured B16-F1 cells exposed to the peptides at 37°C for 0.5, 2, and 3.5 h. Surface-bound radioligand was released by an acid buffer wash, and internalized radioligand was determined by lysing cells with detergent. Results are expressed in percent of the added dose per million cells.

[4] = tested on: B16-F1 tumor-bearing mice; assay: Biodistribution of ^111In-labeled peptides in B16-F1 melanoma-bearing mice; assay type: in vivo, mouse (B6D2F1)
Procedure: as §1, §2

[5] = set-up: method as in 2 sources, ref 37 = [37]; PMID 9574445; doi:10.3109/08860229809045104; 37 Kok RJ Haas M Moolenaar F de Zeeuw D Meijer DK . Drug delivery to the kidneys and the bladder with the low molecular weight protein lysozyme . Ren Fail ( 1998 ) 20 : 211 – 7 . 10.3109/0886022980904 ||| ref 38 = [38]; PMID 11578896; doi:10.1016/S0969-8051(01)00241-4; 38 Akizawa H Arano Y Mifune M Iwado A Saito Y Mukai T Effect of molecular charges on renal uptake of 111 In-DTPA-conjugated peptides . Nucl Med Biol ( 2001 ) 28 : 761 – 8 . 10.1016/S0969-8051(01)00241; settings: urinary excretion; cited from earlier work
[6] = kidney, read-out: Kidney uptake

NCCCC[C@@H](N)C(=O)O [D-Lys]
Effect of coinjection on tumor uptake (in words) [1]: without affecting tumor uptake | Reduction of kidney uptake of radiopeptides by coinjection ([1]; coinjected with ^111In-/^90Y-labeled octreotide peptides): up to 65%

[^111In-DOTA-Nle^4,Asp^5,D-Phe^7,Lys^11(Suc)]-α-MSH4-11-carboxylate
MC1R affinity (in words) (MC1R): lower MC1R affinity | AUC (4–48 h), tumor-to-kidney ([2]; in vivo): 0.62 | Kidney uptake (in words) ([2]; in vivo): lowest kidney uptake | Tumor uptake (in words) ([2]; in vivo): reduced uptake by melanoma tumors

[DOTA-Nle^4,Asp^5,D-Phe^7,Lys^11(Suc)]-α-MSH4-11-carboxylate
Kidney uptake (in words) ([2]; in vivo): reduced kidney uptake | Tumor uptake (in words) ([2]; in vivo): tumor uptake was also affected | Tumor-to-kidney ratio (in words) ([2]; in vivo): even lower than that of the parent molecule

CCCC[C@H](NC(=O)[C@H](Cc1ccc(OP(=O)(O)O)cc1)NC(=O)CNC(=O)CN1CCN(CC(=O)O)CCN(CC(=O)O)CCN(CC(=O)O)CC1)C(=O)N[C@@H](CC(=O)O)C(=O)N[C@@H](Cc1c[nH]cn1)C(=O)N[C@H](Cc1ccccc1)C(=O)N[C@@H](CCCNC(=N)N)C(=O)N[C@@H](Cc1c[nH]c2ccccc12)C(N)=O [[^111In]DOTA-Phospho-MSH2-9, metal not drawn] ({DOTA}-G[pY][Nle]DH[dF]RW-NH2)
tissue to tissue ratio at 24 h [3]: 1.55 | tissue to tissue ratio at 48 h [3]: 1.16 | tissue to tissue ratio at 4 h [3]: 2.75 | tissue uptake at 4 h [3, 6]: 2.68 ± 0.18 %ID/g | tissue uptake at 4 h ([3]; tumor, read-out: Tumor uptake): 7.33 ± 0.47 %ID/g

Ac-Nle-cyclo[Asp-His-D-Phe-Arg-Trp-Lys]-NH2 (sidechain bridge or staple) [melanotan II]
Binding affinity (in words) (MC1R; cyclic analog compared with α-MSH): increased binding affinity

CCCC[C@H](NC(C)=O)C(=O)N[C@@H](CC(=O)O)C(=O)N[C@@H](Cc1c[nH]cn1)C(=O)N[C@H](Cc1ccccc1)C(=O)N[C@@H](CCCNC(=N)N)C(=O)N[C@@H](Cc1c[nH]c2ccccc12)C(=O)NCC(=O)N[C@@H](CCCCNC(=O)CN1CCN(CC(=O)O)CCN(CC(=O)O)CCN(CC(=O)O)CC1)C(N)=O [[^111In]DOTA-NAP-amide, metal not drawn, reference compound]
tissue to tissue ratio at 24 h [3]: 0.96 | tissue to tissue ratio at 48 h [3]: 0.91 | tissue to tissue ratio at 4 h [3]: 1.63 | tissue uptake at 4 h [3, 6]: 4.77 ± 0.26 %ID/g | tissue uptake at 4 h ([3]; tumor, read-out: Tumor uptake): 7.77 ± 0.35 %ID/g | Metabolite in vivo (in words) ([2]; 4 h after injection, ref Froidevaux and Eberle, unpublished): Lys([^111In]DOTA), a metabolite of internalized [^111In]DOTA-NAP-amide occurring 4 h after injection

CCCC[C@H](NC(C)=O)C(=O)N[C@@H](CC(=O)O)C(=O)N[C@@H](Cc1c[nH]cn1)C(=O)N[C@H](Cc1ccccc1)C(=O)N[C@@H](CCCNC(=N)N)C(=O)N[C@@H](Cc1c[nH]c2ccccc12)C(=O)NCC(=O)N[C@@H](CCCCNC(=O)CN1CCN(CC(=O)O)CCN(CC(=O)O)CCN(CC(=O)O)CC1)C(=O)N[C@H](CC(=O)O)C(=O)N[C@H](CC(=O)O)C(=O)O [[^111In]DOTA-NAP-D-Asp-D-Asp] [metal not drawn] (Ac-[Nle]DH[dF]RWGK(DOTA)[dD][dD]-OH; N-terminus and C-terminus assumed)
Internalization profile (in words) (B16-F1 cells; 37°C, 0.5, 2 and 3.5 h, 74 kBq radioligand): excellent internalization profiles | Internalization plateau (in words) (B16-F1 cells; 37°C, 3.5 h): not quite reached | Uptake by other organs (in words) ([4]; 4–48 h): Other organs did not substantially accumulate the radiopeptide | Kidney uptake higher than that of [^111In]DOTA-NAP-amide ([4]; 4 h after injection): 25% | Radioactive load of kidney higher than with the reference peptide ([4]; 24 h after injection): 70%

CCCC[C@H](NC(=O)[C@H](Cc1ccc(OP(=O)(O)O)cc1)NC(=O)CNC(=O)CN1CCN(CC(=O)O)CCN(CC(=O)O)CCN(CC(=O)O)CC1)C(=O)N[C@@H](CC(=O)O)C(=O)N[C@@H](Cc1c[nH]cn1)C(=O)N[C@H](Cc1ccccc1)C(=O)N[C@@H](CCCNC(=N)N)C(=O)N[C@@H](Cc1c[nH]c2ccccc12)C(N)=O [[^111In]DOTA-Phospho-MSH2-9] [metal not drawn] ({DOTA}-G[pY][Nle]DH[dF]RW-NH2)
Effect of coinjection of α-MSH on melanoma uptake (in words) ([4]; 50 µg α-MSH coinjected, data not shown): significantly blocked melanoma uptake | Clearance from the kidney (in words) ([4]; 4–48 h): slightly slower | Uptake by other organs (in words) ([4]; 4–48 h): very low and did not exceed the values found with [^111In]DOTA-NAP-amide | Kidney retention lower than that of [^111In]DOTA-NAP-amide ([4]; 4 h after injection): 44% | Kidney uptake as percentage of that of the reference peptide ([4]; 4 h after injection): 56% | Retention of radioactivity by the tumor ([4]; 24 h postinjection, decreased to % of 4 h value): 40% | Tumor-to-kidney ratio compared with other peptides (in words) ([4]; AUC (4–48 h) or overall comparison): threefold higher; also recorded: most favorable tumor-to-kidney ratio of a linear DOTA-MSH radiopeptide reported to date | Kidney uptake/retention compared with reference (in words) ([4]; in vivo): markedly lower | Tumor uptake compared with reference (in words) ([4]; in vivo, B16-F1 tumors): almost identical with that of [^111In]DOTA-NAP-amide; also recorded: about as high as for the reference compound | Kidney uptake compared with other peptides (in words) ([4]; peptides of net charge −2 to +2, five of the eight peptides from ref 14): slightly lower kidney uptake than [^111In-DOTA-Nle^4,Asp^5,D-Phe^7,Lys^11(Suc)]-α-MSH4-11-carboxylate

CCCC[C@H](NC(C)=O)C(=O)N[C@@H](CC(=O)O)C(=O)N[C@@H](Cc1c[nH]cn1)C(=O)N[C@H](Cc1ccccc1)C(=O)N[C@@H](CCCNC(=N)N)C(=O)N[C@@H](Cc1c[nH]c2ccccc12)C(=O)NCC(=O)N[C@@H](CCCCNC(=O)CN1CCN(CC(=O)O)CCN(CC(=O)O)CCN(CC(=O)O)CC1)C(=O)N[C@H](CC(=O)O)C(=O)N[C@H](CC(=O)O)C(=O)O [[^111In]DOTA-NAP-D-Asp-D-Asp, metal not drawn] (Ac-[Nle]DH[dF]RWGK(DOTA)[dD][dD]-OH; N-terminus and C-terminus assumed)
tissue to tissue ratio at 24 h [3]: 0.15 | tissue to tissue ratio at 48 h [3]: 0.11 | tissue to tissue ratio at 4 h [3]: 0.32 | tissue uptake at 4 h [3, 6]: 5.95 ± 0.85 %ID/g | tissue uptake at 4 h ([3]; tumor, read-out: Tumor uptake): 1.93 ± 0.11 %ID/g

succinylated lysozyme: succinylated lysozyme, compared to the non-succinylated molecule with six amino groups
Excretion compared to non-succinylated molecule (in words) [5]: dramatically increased

[Nle^4, D-Phe^7]-α-MSH [NDP-MSH]
Binding affinity (in words) (MC1R; linear analog compared with α-MSH): increased binding affinity

Reference: paper PMC5405074, “Receptor-Mediated Melanoma Targeting with Radiolabeled α-Melanocyte-Stimulating Hormone: Relevance of the Net Charge of the Ligand” (Frontiers in Endocrinology, 2017)
